Test results published in paper PMC12155096 (International Journal of Molecular Sciences, 2025).
Where two headings read alike, the source gives them in different places.

Tests used:
human CYP1A2 = target: T1, human CYP1A2 (Homo sapiens, UniProt P05177)
T1 sequence (P05177 1-516): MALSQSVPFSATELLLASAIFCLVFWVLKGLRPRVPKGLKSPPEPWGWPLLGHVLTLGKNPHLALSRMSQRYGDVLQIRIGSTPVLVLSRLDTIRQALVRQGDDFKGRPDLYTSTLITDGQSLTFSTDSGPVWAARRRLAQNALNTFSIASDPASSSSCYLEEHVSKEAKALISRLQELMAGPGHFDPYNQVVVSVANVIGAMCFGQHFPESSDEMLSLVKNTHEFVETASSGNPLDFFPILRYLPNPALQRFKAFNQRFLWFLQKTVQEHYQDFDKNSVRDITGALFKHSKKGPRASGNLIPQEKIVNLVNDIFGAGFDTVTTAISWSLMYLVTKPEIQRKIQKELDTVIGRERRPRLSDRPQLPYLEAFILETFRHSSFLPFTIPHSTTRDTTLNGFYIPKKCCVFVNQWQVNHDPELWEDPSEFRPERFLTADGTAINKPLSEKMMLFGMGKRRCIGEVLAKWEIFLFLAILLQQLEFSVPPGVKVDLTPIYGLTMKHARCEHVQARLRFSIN

human CYP2C9 [1] = target: T2, human CYP2C9 (Homo sapiens, UniProt P11712)
T2 sequence (P11712 whole entry): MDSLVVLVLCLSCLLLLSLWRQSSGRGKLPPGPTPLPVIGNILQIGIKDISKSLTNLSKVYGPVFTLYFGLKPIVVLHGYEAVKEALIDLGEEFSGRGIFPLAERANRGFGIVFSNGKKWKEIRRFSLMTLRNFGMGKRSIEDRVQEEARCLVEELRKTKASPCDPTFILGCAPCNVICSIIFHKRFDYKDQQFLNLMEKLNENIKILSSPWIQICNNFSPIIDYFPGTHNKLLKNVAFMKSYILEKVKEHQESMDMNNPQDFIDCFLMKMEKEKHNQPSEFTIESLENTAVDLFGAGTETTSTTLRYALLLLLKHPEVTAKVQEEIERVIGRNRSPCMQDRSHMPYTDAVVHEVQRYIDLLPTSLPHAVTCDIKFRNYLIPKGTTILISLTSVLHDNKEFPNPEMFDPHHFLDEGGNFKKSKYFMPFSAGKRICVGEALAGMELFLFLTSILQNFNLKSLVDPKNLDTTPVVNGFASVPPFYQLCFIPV

human CYP2C19 [2] = target: T3, human CYP2C19 (Homo sapiens, UniProt P33261)
T3 sequence (P33261 whole entry): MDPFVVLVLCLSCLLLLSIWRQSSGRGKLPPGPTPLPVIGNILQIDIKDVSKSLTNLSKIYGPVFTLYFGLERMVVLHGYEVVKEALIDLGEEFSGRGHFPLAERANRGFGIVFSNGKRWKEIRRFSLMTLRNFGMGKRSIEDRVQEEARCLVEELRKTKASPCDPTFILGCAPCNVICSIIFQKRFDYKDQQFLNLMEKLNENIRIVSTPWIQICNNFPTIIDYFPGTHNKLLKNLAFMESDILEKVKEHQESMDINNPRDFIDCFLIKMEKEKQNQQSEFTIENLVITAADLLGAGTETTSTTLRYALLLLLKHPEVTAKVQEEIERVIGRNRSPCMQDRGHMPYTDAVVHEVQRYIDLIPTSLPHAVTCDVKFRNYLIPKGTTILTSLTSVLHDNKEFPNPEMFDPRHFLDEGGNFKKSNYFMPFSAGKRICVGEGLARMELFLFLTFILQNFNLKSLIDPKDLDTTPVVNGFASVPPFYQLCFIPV

human CYP2D6 = human CYP2D6 (Homo sapiens, UniProt P10635)
human CYP2D6, sequence (P10635 whole entry): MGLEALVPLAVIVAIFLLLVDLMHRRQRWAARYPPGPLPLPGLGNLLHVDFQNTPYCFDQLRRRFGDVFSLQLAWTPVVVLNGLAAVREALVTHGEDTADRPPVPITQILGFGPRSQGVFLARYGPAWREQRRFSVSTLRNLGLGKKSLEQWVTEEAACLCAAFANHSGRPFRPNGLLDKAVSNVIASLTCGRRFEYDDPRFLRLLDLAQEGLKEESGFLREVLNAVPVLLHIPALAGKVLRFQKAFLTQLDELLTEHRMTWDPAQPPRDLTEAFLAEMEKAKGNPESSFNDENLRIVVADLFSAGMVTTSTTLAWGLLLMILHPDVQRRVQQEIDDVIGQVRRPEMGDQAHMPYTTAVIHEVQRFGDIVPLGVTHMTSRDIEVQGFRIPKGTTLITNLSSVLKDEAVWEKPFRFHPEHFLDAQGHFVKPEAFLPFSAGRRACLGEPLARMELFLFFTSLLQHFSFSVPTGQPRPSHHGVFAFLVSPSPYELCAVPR

CYP3A4 = CYP3A4 (Homo sapiens, UniProt P08684); assay: biochemical
CYP3A4, sequence (P08684 whole entry): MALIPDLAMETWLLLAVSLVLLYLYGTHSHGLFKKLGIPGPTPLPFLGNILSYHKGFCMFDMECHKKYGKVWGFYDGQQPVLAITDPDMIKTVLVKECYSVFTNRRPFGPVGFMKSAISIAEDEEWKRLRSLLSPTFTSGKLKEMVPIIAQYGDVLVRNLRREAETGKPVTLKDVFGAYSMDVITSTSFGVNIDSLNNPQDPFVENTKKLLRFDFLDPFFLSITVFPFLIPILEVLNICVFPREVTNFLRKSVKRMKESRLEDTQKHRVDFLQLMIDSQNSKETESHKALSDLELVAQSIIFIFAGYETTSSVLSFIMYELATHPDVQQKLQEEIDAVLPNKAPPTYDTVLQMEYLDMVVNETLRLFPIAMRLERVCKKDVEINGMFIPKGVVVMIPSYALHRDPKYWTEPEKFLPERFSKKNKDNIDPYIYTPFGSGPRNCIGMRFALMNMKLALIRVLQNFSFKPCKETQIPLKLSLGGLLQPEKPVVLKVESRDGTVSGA

human CYP2C9 [3] = target: T2, human CYP2C9; assay: biochemical
human CYP2C19 [4] = target: T3, human CYP2C19; assay: biochemical
[5] = CYP3A4 AC50 (half-maximal activity concentration)
[6] = CYP2C9 AC50 (half-maximal activity concentration)
[7] = CYP2C19 AC50 (half-maximal activity concentration)

SMILES | CYP1A2 AC50 (half-maximal activity concentration) (human CYP1A2) | CYP2C9 AC50 (half-maximal activity concentration) (human CYP2C9 [1]) | CYP2C19 AC50 (half-maximal activity concentration) (human CYP2C19 [2]) | CYP2D6 AC50 (half-maximal activity concentration) (human CYP2D6) | AC50 (CYP3A4; [5]) | AC50 (CYP3A4) | AC50 (human CYP2C9 [3]) | AC50 (human CYP2C19 [4]) | AC50 (human CYP2C9 [3]; [6]) | AC50 (human CYP2C19 [4]; [7]) | CYP1A2 AC50 (half-maximal activity concentration) (human CYP1A2; mean ± standard deviation from three experiments, words = activity call)
Clc1cc(Cl)c(-c2c(Cl)c(Cl)cc(Cl)c2Cl)cc1Cl | Inactive | Inactive | Inconclusive activator | Inactive | 24.9 µM |  |  |  |  |  | 
O=C(O)c1cccc(C(=O)O)c1 [1,3-Benzenedicarboxylic acid] | Inactive | Inconclusive activator | Inactive | Inactive | 9.6 µM |  |  |  |  |  | 
CCCCC(C=O)CC (stereo not shown) [2-Ethylhexanal] | Inactive | Inactive | Inactive | Inactive |  | 45.1 µM |  |  |  |  | 
O=C(O)c1cccc(Oc2ccccc2)c1 [3-Phenoxybenzoic acid] | Inactive | Inactive | Inactive | Inactive |  | 35.6 µM |  |  |  |  | 
O=C1OC2(c3ccccc31)c1ccc(O)c(Br)c1Oc1c2ccc(O)c1Br [4',5'-Dibromofluorescein] | Inconclusive inhibitor |  |  | Inactive |  | 27.2 µM | 46.2 µM | 53.7 µM |  |  | 
NNS(=O)(=O)c1ccc(Oc2ccc(S(=O)(=O)NN)cc2)cc1 [4,4'-Oxybis(benzenesulfonhydrazide)] | Inactive |  |  | Inconclusive inhibitor |  | 7.84 µM | 6 µM | 16.8 µM |  |  | 
C[C@]12CCC(=O)C=C1CC[C@@H]1[C@@H]2CC[C@]2(C)C(=O)CC[C@@H]12 [4-Androstene-3,17-dione] | Inactive |  |  | Inconclusive inhibitor | 8.36 µM |  |  |  | 71.9 µM | 33.3 µM | 
Cc1ccc(C(=O)O)cc1[N+](=O)[O-] [4-Methyl-3-nitrobenzoic acid] | Inconclusive inhibitor | Inactive | Inactive | Inactive | 35.3 µM |  |  |  |  |  | 
CCOCN(C(=O)CCl)c1c(C)cccc1CC [Acetochlor] | Inconclusive inhibitor |  |  | Inactive | 8.35 µM |  |  |  | 31.2 µM | 9.51 µM | 
COC(=O)C(C)N(C(=O)Cc1ccccc1)c1c(C)cccc1C (stereo not shown) [Benalaxyl] | Inactive |  |  | Inconclusive inhibitor | 4.54 µM |  |  |  | 22.6 µM | 5.23 µM | 
NS(=O)(=O)c1ccc(NCc2ccccc2)cc1 [Benzylsulfamide] | Inactive |  |  | Inactive |  | 7.8 ± 0.9 µM | 18.6 ± 5.47 µM | 3.82 ± 1.44 µM |  |  | 
COc1cc(Nc2c(C#N)cnc3cc(OCCCN4CCN(C)CC4)c(OC)cc23)c(Cl)cc1Cl [Bosutinib] | Inactive | Inactive | Inactive | Inconclusive inhibitor | 3.48 µM |  |  |  |  |  | 
O=C(CCCN1CCC(O)(c2ccc(Br)cc2)CC1)c1ccc(F)cc1 [Bromperidol] | Inactive | Inactive | Inactive | Inconclusive inhibitor | 4.92 µM |  |  |  |  |  | 
C[C@]12CCC(=O)C=C1C=C[C@@H]1[C@@H]2CC[C@@]2(C)[C@H]1CC[C@@]21CCC(=O)O1 [Canrenone] | Inconclusive inhibitor |  |  | Inactive | 3.48 µM |  |  |  | 32.2 µM | 1.67 µM | 
CC(=O)O[C@]1(C(C)=O)CC[C@H]2[C@@H]3C=C(Cl)C4=CC(=O)CC[C@]4(C)[C@H]3CC[C@@]21C [Chlormadinone acetate] | Inactive |  |  | Inactive | 2.05 µM |  |  |  | 14.9 µM | 5.67 µM | 
CC(=O)O[C@H]1CC[C@@]2(C)C(=CC[C@@H]3[C@@H]2CC[C@]2(C)C(=O)CC[C@@H]32)C1 [Dehydroepiandrosterone acetate] | Inconclusive inhibitor |  |  | Inactive | 6.03 µM |  |  |  | 28.4 µM | 28.4 µM | 
CC1(C)[C@H](C(=O)O[C@H](C#N)c2cccc(Oc3ccccc3)c2)[C@@H]1C=C(Br)Br [Deltamethrin] | Inconclusive inhibitor |  |  | Inconclusive inhibitor | 9.13 µM |  |  |  | 3.68 µM | 8.8 µM | 
CC(=O)OCC(=O)[C@H]1CC[C@H]2[C@@H]3CCC4=CC(=O)CC[C@]4(C)[C@H]3CC[C@]12C [Deoxycorticosterone acetate] | Inactive |  |  | Inconclusive inhibitor | 4.07 µM |  |  |  | 5.67 µM | 8.43 µM | 
O=S(=O)(c1ccccc1)c1ccccc1 [Diphenylsulfone] | Inactive |  |  | Inactive | 28.4 µM |  |  |  | 7.39 µM | 41.1 µM | 
CC(=O)[C@H]1CC[C@H]2[C@@H]3C=CC4=CC(=O)CC[C@@]4(C)[C@@H]3CC[C@]12C [Dydrogesterone] | Inactive |  |  | Inconclusive inhibitor | 4.36 µM |  |  |  | 32.4 µM | 5.49 µM | 
C#C[C@]1(OC(C)=O)CC[C@H]2[C@@H]3CCC4=C[C@@H](OC(C)=O)CC[C@@H]4[C@H]3CC[C@@]21C [Ethynodiol diacetate] | Inactive |  |  | Inactive | 3.91 µM |  |  |  | 13.3 µM | 23.7 µM | 
COC(=O)C(C)N(C(=O)c1ccco1)c1c(C)cccc1C (stereo not shown) [Furalaxyl] | Inconclusive inhibitor |  |  | Inactive | 14.7 µM |  |  |  | 29.5 µM | 13.4 µM | 
CC(=O)O[C@]1(C(C)=O)CC[C@H]2[C@@H]3C=C(C)C4=CC(=O)CC[C@]4(C)[C@H]3CC[C@@]21C [Megestrol acetate] | Inactive |  |  | Inactive | 2.16 µM |  |  |  | 8.11 µM | 7.2 µM | 
C=C1C[C@H]2[C@@H]3C=C(C)C4=CC(=O)CC[C@]4(C)[C@H]3CC[C@]2(C)[C@@]1(OC(C)=O)C(C)=O [Melengestrol acetate] | Inactive |  |  | Inactive | 4.92 µM |  |  |  | 16.8 µM | 20.3 µM | 
CCCCCCCCOc1ccc(C(=O)c2ccccc2)c(O)c1 [Octabenzone] | Inconclusive inhibitor |  |  | Inactive | 26.2 µM |  |  |  | 13.8 µM | 53.3 µM | 
CC(C)N(C(=O)SCC(Cl)=C(Cl)Cl)C(C)C [Tri-allate] | Inconclusive inhibitor |  |  | Inactive | 2.47 µM |  |  |  | 33 µM | 10.3 µM | 
O=P(c1ccccc1)(c1ccccc1)c1ccccc1 [Triphenylphosphine oxide] |  |  |  | Inactive |  | 37 ± 2.51 µM | 6.87 ± 0.95 µM | 7.22 ± 1.65 µM |  |  | Inconclusive inhibitor
ClC(Cl)=C(c1ccc(Cl)cc1)c1ccccc1Cl [o,p'-DDE] | Inactive |  |  | Inactive | 22.9 µM |  |  |  | 21 µM | 6.84 µM | 
O=C(O)C(c1ccc(Cl)cc1)c1ccc(Cl)cc1 [p,p'-DDA] | Inactive |  |  | Inactive | 68.4 µM |  |  |  | 15.4 µM | 24.5 µM | 
